Reference: US4591605A, “Method and ingestible formulation for inhibiting the secretion of stomach acid” (Research Foundation of State University of New York, priority 1982, dated 1986)

Key:
[1] = tested on: histamine stimulated bullfrog gastric mucosa; test: H+ secretion by histamine-stimulated bullfrog gastric mucosa (chambered mucosa, titration); parameters: species or system bullfrogs (Rana catesbeiana); conditions: for activity at 500 µM: Aquarana catesbeiana, 0.5 mM drug in the secretory solution, histamine stimulated steady-state H+ secretory rate, mean ±SEM, read-out: Rate of H^+ transport (% of control); for reversibility of the inhibition of H^+ transport by elevation of secretory K^+: K+ substituted for Na+ of the secretory solution; for inhibitory effect relative to the other polyamine: spermine versus spermidine
Method: This experiment was carried out with gastric mucosa from bullfrogs (Rana catesbeiana). […] The area of the mounted mucosae was 1.5 cm^2. The bathing solutions were bubbled continuously with […] -5% CO2.
The normal nutrient soliution had the following composition (in mM): NaCl 87, KCl 4, CaCl2 2, MgCl2 1, KH2 PO4 1, NaHCO3 18, and glucose 11.
All experiments were conducted under open-circuit conditions at room temperature. The mucosal solutions were collected at 15-minute intervals and placed in thoroughly washed plastic vials. The K^+ content of the secretory medium was determined by atomic absorption spectrophotometer (model 360 Perkin-Elmer). The H^+ secretion was quantitated by titration using 1 mM NaOH to pH 6.5 while gassing with 100% N2.
The H^+ secretory rates are the steady-stage values before (None) and after addition of the drugs attained by the histamine stimulated mucosa. Values are mean ±SEM.

[2] = tested on: gastric (H^+ +K^+)-ATPase; conditions: vesicles preequilibrated in 150 mM KCl with 0.5 mM compound for 48 hours
Method: The gastric microsomal membranes were harvested. All procedures were carried out at 0°-4° C. Briefly, the fundic mucosa from the pig was desquamated and scraped to collect the oxyntic cell-enriched fractions. The mucosal scraping was homogenized gently in a medium consisting of 250 mM sucrose, 0.2 mM EDTA, and 0.2 mM Pipes buffer (pH 6.8) using a loose pestle homogenizer. The homogenate was centrifuged at 8000 g for 5 min. The process was repeated three times. All the supernatants were pooled together and layered over 40 ml of 37% sucrose in 84-ml capacity screw cap tubes and centrifuged at 100,000 g for 5 hours. The microsomal membrane bands appeared at the interface of soluble supernatant and 37% sucrose. The microsomal vesicle bands were collected, diluted with homogenizing medium, and centrifuged at 100,000 g for 90 min. The pellet was suspended in the homogenizing medium with a protein concentration of 0.5 mg/ml. The collected cellular vesicules were inverted, i.e., the interior of the vesicules originally faced the lumen side of the stomach. Vesicular accumulation of H^+ was measured at room temperature. The method uses the change in fluorescence intensity (quenching) of 9-amino-acridine or acridine orange which is proportional to the amount of dye taken up by the microsomes. The amount of dye taken up is a sensitive measure of intravesicular H^+ concentration. […]

Row | Structure (SMILES) | activity at 500 µM [1] | reversibility of the inhibition of H^+ transport by elevation of secretory K^+ [1] | inhibition of gastric H^+ transport, added into the nutrient solution ([1]; nutrient solution, concentration not given) | inhibition of gastric H^+ transport, added into the secretory solution ([1]; secretory solution, concentration not given) | inhibitory effect relative to the other polyamine [1] | inhibition of H^+ transport, added into the secretory solution ([1]; 0.25 mM in secretory solution (lumen side), inhibition increased with concentration) | rate of H^+ transport in K+-depleted mucosa ([1]; 1 mM together with 10 mM K+ in the secretory solution, within 30 min) | reversibility of inhibition by elevation of secretory K^+ in K+-depleted mucosa ([1]; 1 mM with 10 mM K+ in secretory solution, then K+ elevated) | effect on H^+ transport, added to nutrient solution ([1]; 0.5 and 1.0 mM, from the nutrient side) | H^+ uptake by the vesicles [2]
1 | NCCCCN [Putrescine, putrescine, reference compound] | 95 ± 10% |  |  |  |  |  |  |  |  | 
2 | NCCCCNCCCN [Spermidine, spermidine] | 55 ± 2% | could also be reversed | not into the nutrient solution | inhibits gastric H^+ transport | much lower than spermine |  |  |  |  | 
3 | NCCCNCCCCNCCCN [Spermine, spermine] | 28 ± 6% | completely reversible |  |  | more potent than spermidine | remarkable inhibition of H^+ transport | near zero | could be reversed | did not have any appreciable effect | totally obliterated
